From patent US8829175B2, “Nucleic acids encoding polyvalent protein complexes” (IBC Pharmaceuticals, Inc., priority 2003, dated 2014)
Starred links: 1 amine or outer side, 2 acyl side, 3 side chain; linkers in the order of their positions; H or OH if unused. Non-standard residues stand in square brackets, D forms with d. Residues, ends and D or L forms follow the SMILES beside them. Groups on a side chain read outwards from the residue. *: point of attachment. DOTA = O=C(O)CN1CCN(CC(=O)O)CCN(CC(=O)*)CCN(CC(=O)O)CC1; NH(2-(imidazol-4-yl)ethyl) = c1ncc(CCN*)[nH]1; Suc = O=C(CCC(=O)[*:2])[*:1]; X1 = NC(=S)NN=CC(=O)*

What was measured:
[1] = test system: GW-39 (CEA positive) tumors; set-up: species or system nude mice; conditions: mouse, in vivo
Description: The utility of BS14HP for tumor pretargeting was evaluated in GW-39 tumor-bearing mice using a bivalent HSG peptide (IMP-241) labeled with ^111In. IMP-241 has a structure of DOTA-Phe-Lys(HSG)-D-Tyr-Lys(HSG)-NH2, where the N-terminal amino group of Phe is linked to a DOTA and the epsilon amino group of each lysine is derivatived with an HSG group. The tetrapeptide backbone (Phe-Lys-(D-Tyr)-Lys) contains a d-amino acid (D-Tyr) and the carboxyl group of the C-terminal lys is amidated.
(§1) The results from this analysis were compared with those of chemically linked hMN-14×679 (Fab′×Fab′) and BS1.5H (bispecific diabody). Nude mice bearing GW-39 (CEA positive) tumors were pre-targeted with BS14HP, BS1.5H or hMN-14×679. Initially, the bio-distribution was followed with ^131I-labeled bispecific agent. The tumor residence and blood clearance of ^131I-BS14HP is depicted in FIG. 7. As determined in preliminary experiments, the time interval between administration of bispecific targeting agent and of ^111In-IMP241 peptide is the amount of time required for the former to clear the blood to a concentration of 1% ID/g or less. […] IMP-241 (Immunomedics, Inc), a peptide containing two HSG groups and a DOTA moiety, was loaded with ^111Indium and injected in pre-targeted mice. The bio-distribution of the ^111In-IMP-241 was examined at 3 hours after injection (FIG. 8A) and the tumor/non-tumor ratios are shown in FIG. 8B.

in vivo = assay: in vivo; set-up: species or system nude mice; conditions: nude, mouse
Description: (§2) IMP-245 was prepared and labeled using standard techniques known in the art. See, for example, published application US20030198595 (now issued U.S. Pat. No. 7,138,103), which is hereby incorporated by reference in its entirety. The experiment used 3 groups of 15 mice, each of which was necropsied, and 1 group of 5 mice that was imaged. Three groups of mice were administered 6 μCi ^125I-hBS14 (40 μg, 5.0×10^−10 moles). In the last group (imaging group), 3 mice received unlabeled hBS14. The amount of ^99mTc-IMP-245 administered to all the mice was ˜40 μCi (92 ng, 5.0×10^−11 moles) for a bispecific:peptide ratio of 10:1. […] Due to differences in tumor growth rates, only 20 mice were initially available for administration of hBS14. Fifteen mice were used to fill out Group II while 5 mice were used for Group I. The remaining mice (including the imaged mice) were injected one week later. Not all the mice implanted with GW-39 tumors developed usable tumors and, therefore, Group I only had 10 mice and were sacrificed at 1 hr post-peptide injection and 24 hrs post-injection.

[2] = test system: human colonic tumor (GW-39) xenograft; assay: in vivo; set-up: species or system nude mice; conditions: mouse
Description: as §2

[3] = test system: WI2 IgG, an anti idiotypic antibody to hMN-14; assay: BIAcore WI2 molar binding ratio of bispecific protein captured on HSG sensorchip; set-up: species or system rat; conditions: protein bound to HSG sensorchip, then WI2; theoretical maximum 1.0 for two CEA binding sites
Description: The analysis step is as follows. Samples of the culture media were diluted 1:5 in EB buffer (150 mM NaCl; 50 μM EDTA; 0.005% surfactant P20; 10 mM HEPES, pH 7.4) and injected ([…]) over a high-density, HSG-coupled sensorchip in a BIAcoreX system. Following injection of the diluted media, EB containing 20 μg/ml of WI2 IgG, an anti idiotypic antibody to hMN-14, was injected ([…]) over the sensorchip to confirm bispecific binding. The initial binding slopes were used to quantitate yields. Seven of the nine zeocin resistant clones tested produced bispecific protein with a yield of up to 3 mg per liter of culture media.
The W12:BS14HP molar binding ratio can be derived by comparison of the response units (RU) attained from BS14HP binding to the HSG sensorchip with the further RU increase from W12 binding to BS14HP with normalization for the respective molecular weights. Several BS14HP preps were analyzed with the measured ratio ranging from 0.8-0.9. […]
If the W12 binding is allowed to approach saturation, the stoichiometry of the binding can be determined. […] As each increase in RU level is directly proportional to the mass bound, the WI2:bsAb molar binding ratio can be calculated using the formula (RUWI2/RUhBS14)×(MWhBS14/MWWI2). hBS14 was designed to be bivalent for CEA (and monovalent for HSG) and as such should bind W12 (also bivalent) with a 1:1 molar ratio. […]

[4] = Blood clearance of radioiodinated bispecific agents in GW-39 tumor-bearing nude mice; type: in vivo; conditions: 131I-labeled bispecific agent, preliminary experiments
From the text: as §1

C[C@@H](NC(=O)CN1CCN(CC(=O)O)CCN(CC(=O)O)CCN(CC(=O)O)CC1)C(=O)N[C@H](CCCCNC(=O)CNC(=O)CCC(=O)NCCc1cnc[nH]1)C(=O)N[C@H](CCC(=O)O)C(=O)N[C@H](CCCCNC(=O)CNC(=O)CCC(=O)NCCc1cnc[nH]1)C(N)=O [IMP281] ({DOTA}-[dA][dK]([Gly-Suc-NH(2-(imidazol-4-yl)ethyl)])[dE][dK]([Gly-Suc-NH(2-(imidazol-4-yl)ethyl)])-NH2)
pretargeting experiments performed again with other peptides [1]: same results

NC(=O)[C@@H](CCCCNC(=O)CNC(=O)CCC(=O)NCCc1cnc[nH]1)NC(=O)[C@@H](Cc1ccc(O)cc1)NC(=O)[C@@H](CCCCNC(=O)CNC(=O)CCC(=O)NCCc1cnc[nH]1)NC(=O)[C@@H](Cc1ccccc1)NC(=O)CN1CCN(CC(=O)O)CCN(CC(=O)O)CCN(CC(=O)O)CC1 [IMP284] ({DOTA}-[dF][dK]([Gly-Suc-NH(2-(imidazol-4-yl)ethyl)])[dY][dK]([Gly-Suc-NH(2-(imidazol-4-yl)ethyl)])-NH2)
pretargeting experiments performed again with other peptides [1]: same results

NC(=O)[C@H](CCCCNC(=O)[C@H](CS)NC(=O)C=NNC(N)=S)NC(=O)[C@H](CCCCNC(=O)CNC(=O)CCC(=O)NCCc1c[nH]cn1)NC(=O)[C@@H](Cc1ccc(O)cc1)NC(=O)[C@H](CCCCNC(=O)CNC(=O)CCC(=O)NCCc1c[nH]cn1)NC(=O)[C@H](Cc1ccccc1)NC(=O)CN1CCN(CC(=O)O)CCN(CC(=O)O)CCN(CC(=O)O)CC1 [IMP-245] ({DOTA}-FK([Gly-Suc-NH(2-(imidazol-4-yl)ethyl)])[dY]K([Gly-Suc-NH(2-(imidazol-4-yl)ethyl)])K([Cys-X1])-NH2; N-terminus and C-terminus assumed)
tissue uptake at 1 h (in vivo): 36.9 ± 6.42 %ID/g | tissue uptake at 24 h (in vivo): 3.81 ± 0.8 %ID/g | tissue uptake at 24 h (in vivo; 92 ng): 3.71 ± 0.43 %ID/g | tissue uptake at 24 h (in vivo; 92 ng, tumor uptake): 0.3 ± 0.08 %ID/g | tissue uptake at 4 h (in vivo; tumor uptake): 15.9 ± 16.3 %ID/g | fold less peptide than hBS14 in the tumor [2]: 4.7 fold | fold more IMP-245 in the tumor versus hBS14 [2]: 2.4 fold | fold more IMP-245 than hBS14 in the tumors [2]: Approximately 2 fold | relative amount of actual signal in the tumors, fold less [2]: 13 fold | tumor uptake ([2]; nude, 4 h): 14.53±4.90 % ID/g

NC(=O)[C@@H](CCCCNC(=O)CNC(=O)CCC(=O)NCCc1c[nH]cn1)NC(=O)[C@@H](CCC(=O)O)NC(=O)[C@@H](CCCCNC(=O)CNC(=O)CCC(=O)NCCc1c[nH]cn1)NC(=O)[C@@H](Cc1ccc(O)cc1)NC(=O)CN1CCN(CC(=O)O)CCN(CC(=O)O)CCN(CC(=O)O)CC1 [IMP288] ({DOTA}-[dY][dK]([Gly-Suc-NH(2-(imidazol-4-yl)ethyl)])[dE][dK]([Gly-Suc-NH(2-(imidazol-4-yl)ethyl)])-NH2)
pretargeting experiments performed again with other peptides [1]: same results

B1: BS14HP: bispecific trivalent heterodimer (SEQ ID NO:1 and 2) from Pichia pastoris, two binding sites for CEA and one for HSG (antibody)
heavy: EAEAEFMEVQLVESGGDLVKPGGSLKLSCAASGFTFSIYTMSWLRQTPGKGLEWVATLSGDGDDIYYPDSVKGRFTISRDNAKNSLYLQMNSLRAEDTALYYCARVRLGDWDFDVWGQGTTVSVSSGGGGSDIQLTQSPSSLSASVGDRVTITCKASQDVGTSVAWYQQKPGKAPKLLIYWTSTRHTGVPSRFSGSGSGTDFTFTISSLQPEDIATYYCQQYSLYRSFGQGTKVEIKRLEGGGSEVQLVESGGGVVQPGRSLRLSCSASGFDFTTYWMSWVRQAPGKGLEWIGEIHPDSSTINYAPSLKDRFTISRDNAKNTLFLQMDSLRPEDTGVYFCASLYFGFPWFAYWGQGTPVTVSVDHHHHHH
light: EAEAEFDIQLTQSPSSLSASVGDRVTITCKASQDVGTSVAWYQQKPGKAPKLLIYWTSTRHTGVPSRFSGSGSGTDFTFTISSLQPEDIATYYCQQYSLYRSFGQGTKVEIKRGGGQFMEVQLVESGGGVVQPGRSLRLSCSASGFDFTTYWMSWVRQAPGKGLEWIGEIHPDSSTINYAPSLKDRFTISRDNAKNTLFLQMDSLRPEDTGVYFCASLYFGFPWFAYWGQGTPVTVSGGGGSDIVMTQSPSSLAVSPGERVTLTCKSSQSLFNSRTRKNYLGWYQQKPGQSPKLLIYWASTRESGVPDRFSGSGSGTDFTLTINSLQAEDVAVYYCTQVYYLCTFGAGTKLELKRLDHHHHHH
WI2:bsAb molar binding ratio [3]: 0.8-0.9 | pre-targeting clearance time (time to clear the blood to 1% ID/g or less) [4]: 24 h | 111In-IMP241 peptide specifically bound to the tumor, compared to mice pretargeted with BS1.5H or hMN14×679 [1]: approximately three-fold
